Like-named read-outs stand apart in the source and are kept apart here.
Target: human P2X7 receptor (Homo sapiens, UniProt Q99572, R270H/Y155H)
Assay: Evaluation of human P2X7 receptor inhibitory activity (Yo-Pro uptake, BzATP stimulation, FLIPR TETRA)
Assay type: cell-based
Method in brief: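 Yo-Pro dye uptake triggered by BzATP was monitored by FLIPR in human P2X7-transfected 1321N1 cells (SNP variant) in HEPES-buffered HBSS, pH 7.4-7.5. Compound was dispensed 8 min post-stimulation, then signal read for 20 min; IC50 derived logistically from inhibition of the fluorescence range.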

[1] = antagonistic activity for the human P2X7 receptor, read-out: IC50
[2] = 1321N1 cells stably expressing human P2X7 receptor, BzATP stimulation, Yo-Pro uptake, read-out: IC50 (antagonistic activity for the human P2X7 receptor)

## COc1cn(Cc2cc(F)cc(Cl)c2)c(Nc2cc3ncccc3cc2C)nc1=O [Compound I-0773]
[1]
  IC50: 100 to 500 nM

## COc1cn(Cc2cc(F)cc(F)c2)c(Nc2cc3ncccc3cc2C)nc1=O [Compound I-0774]
[2]
  IC50: 110 nM

## COc1cn(Cc2ccc(F)c(Cl)c2)c(Nc2cc(C(C)(C)O)ccc2C)nc1=O [Compound I-0775]
[1]
  IC50: 10 to 100 nM

## COc1cn(Cc2cc(F)cc(Cl)c2)c(Nc2cc(C(C)(C)O)ccc2C)nc1=O [Compound I-0776]
[1]
  IC50: 10 to 100 nM

## CCOc1cc(Nc2nc(=O)c(OC)cn2Cc2cc(F)c(F)c(F)c2)c(C)cc1C [Compound I-0777]
[1]
  IC50: < 10 nM

## Cc1nc2cc(C)c(Nc3nc(=O)c(F)cn3Cc3ccc(F)c(Cl)c3)cc2s1 [Compound I-0778]
[1]
  IC50: < 10 nM

## COc1cc(Nc2nc(=O)c(OC)cn2Cc2ccc(F)c(F)c2)c(C)cc1F [Compound I-0779]
[1]
  IC50: < 10 nM

## COc1cc(Nc2nc(=O)c(OC)cn2Cc2cc(F)cc(Cl)c2)c(C)cc1F [Compound I-0780]
[1]
  IC50: 10 to 100 nM

## COc1cc(Nc2nc(=O)c(OC)cn2Cc2cc(F)cc(F)c2)c(C)cc1F [Compound I-0781]
[1]
  IC50: 10 to 100 nM

## COc1cn(Cc2ccccc2)c(Nc2cc(-c3ccnn3C)ccc2C)nc1=O [Compound I-0782]
[1]
  IC50: 100 to 500 nM

## COc1cn(Cc2ccc(F)c(F)c2)c(Nc2cc(-c3ccnn3C)ccc2C)nc1=O [Compound I-0783]
[1]
  IC50: 10 to 100 nM

## COc1cn(Cc2cc(F)cc(F)c2)c(Nc2cc(-c3ccnn3C)ccc2C)nc1=O [Compound I-0784]
[1]
  IC50: 10 to 100 nM

## COc1cn(Cc2cc(F)cc(F)c2)c(Nc2cc(C(C)(C)O)ccc2C)nc1=O [Compound I-0785]
[1]
  IC50: 10 to 100 nM

## Cc1nc2cc(C)c(Nc3nc(=O)c(Cl)cn3Cc3ccccc3)cc2s1 [Compound I-0786]
[2]
  IC50: 25 nM

## Cc1nc2cc(C)c(Nc3nc(=O)c(Cl)cn3Cc3ccc(F)c(Cl)c3)cc2s1 [Compound I-0787]
[1]
  IC50: < 10 nM

## Cc1nc2cc(C)c(Nc3nc(=O)c(F)cn3Cc3ccccc3)cc2s1 [Compound I-0788]
[2]
  IC50: 12 nM

## CCOc1cc(Nc2nc(=O)c(OC)cn2Cc2cc(F)cc(Cl)c2)c(C)cc1C [Compound I-0789]
[1]
  IC50: < 10 nM

## CCOc1cc(Nc2nc(=O)c(OC)cn2Cc2ccccc2)c(C)cc1C [Compound I-0790]
[1]
  IC50: < 10 nM

## CCOc1cc(Nc2nc(=O)c(OC)cn2Cc2cccc(Cl)c2)c(C)cc1C [Compound I-0791]
[1]
  IC50: < 10 nM

## CCOc1cc(Nc2nc(=O)c(OC)cn2Cc2ccc(F)c(Cl)c2)c(C)cc1C [Compound I-0792]
[2]
  IC50: 9 nM

## CCOc1cc(Nc2nc(=O)c(OC)cn2Cc2ccc(F)c(F)c2)c(C)cc1C [Compound I-0793]
[1]
  IC50: < 10 nM

## CCOc1cc(Nc2nc(=O)c(OC)cn2Cc2cc(F)cc(F)c2)c(C)cc1C [Compound I-0794]
[1]
  IC50: < 10 nM

## CCOc1cn(Cc2ccc(F)c(Cl)c2)c(Nc2cc(OC)c(OC)cc2C)nc1=O [Compound I-0795]
[1]
  IC50: < 10 nM

## CCc1cc2c(cc1Nc1nc(=O)c(OC)cn1Cc1ccccc1)OCCO2 [Compound I-0796]
[1]
  IC50: 10 to 100 nM

## CCc1cc2c(cc1Nc1nc(=O)c(OC)cn1Cc1cc(F)cc(F)c1)OCCO2 [Compound I-0797]
[1]
  IC50: 10 to 100 nM

## CCc1cc2c(cc1Nc1nc(=O)c(OC)cn1Cc1ccc(F)c(Cl)c1)OCCO2 [Compound I-0798]
[1]
  IC50: 10 to 100 nM

## COc1cn(Cc2ccc(F)c(Cl)c2)c(Nc2ccc3occc3c2C)nc1=O [Compound I-0799]
[1]
  IC50: < 10 nM

## COc1cn(Cc2ccccc2)c(Nc2cc(C)c(OCC(F)(F)F)cc2C)nc1=O [Compound I-0800]
[1]
  IC50: 10 to 100 nM

## COc1cn(Cc2ccccc2)c(Nc2cc(C)c(Cl)cc2F)nc1=O [Compound I-0801]
[1]
  IC50: 100 to 500 nM

## COc1cn(Cc2cc(F)c(F)c(F)c2)c(Nc2cc(-c3cscn3)ccc2C)nc1=O [Compound I-0802]
[1]
  IC50: < 10 nM

## COc1cn(Cc2cc(F)c(F)c(F)c2)c(Nc2cc(N3CCCC3=O)ccc2C)nc1=O [Compound I-0803]
[1]
  IC50: 10 to 100 nM

## COc1cc(C)c(Nc2nc(=O)c(OC)cn2Cc2cc(F)c(F)c(F)c2)cc1F [Compound I-0804]
[1]
  IC50: < 10 nM

## COc1cn(Cc2cc(F)c(F)c(F)c2)c(Nc2cc(OC(F)F)c(C)cc2C)nc1=O [Compound I-0805]
[1]
  IC50: < 10 nM

## COc1cn(Cc2cc(F)cc(F)c2)c(Nc2cc(C)c(OCC(F)(F)F)cc2C)nc1=O [Compound I-0806]
[1]
  IC50: 10 to 100 nM

## COc1cn(Cc2ccc(F)c(Cl)c2)c(Nc2cc(C)c(OCC(F)(F)F)cc2C)nc1=O [Compound I-0807]
[1]
  IC50: 10 to 100 nM

## COc1cn(Cc2ccc(Cl)s2)c(Nc2cc(C)c(C)cc2C)nc1=O [Compound I-0808]
[1]
  IC50: < 10 nM

## COc1cn(Cc2ccc(F)c(Cl)c2)c(Nc2cc(Cl)c(F)cc2C)nc1=O [Compound I-0809]
[1]
  IC50: 10 to 100 nM

## COc1cn(Cc2ccc(F)c(F)c2)c(Nc2cc(Cl)c(F)cc2C)nc1=O [Compound I-0810]
[1]
  IC50: 10 to 100 nM

## COc1cn(Cc2cc(F)cc(Cl)c2)c(Nc2cc(Cl)c(F)cc2C)nc1=O [Compound I-0811]
[1]
  IC50: 10 to 100 nM

## COc1cn(Cc2cc(F)cc(F)c2)c(Nc2cc(Cl)c(F)cc2C)nc1=O [Compound I-0812]
[1]
  IC50: 10 to 100 nM

## CCc1cc(F)c(OC)cc1Nc1nc(=O)c(OC)cn1Cc1ccccc1 [Compound I-0813]
[1]
  IC50: < 10 nM

## CCc1cc(F)c(OC)cc1Nc1nc(=O)c(OC)cn1Cc1ccc(F)c(Cl)c1 [Compound I-0814]
[1]
  IC50: < 10 nM

## CCc1cc(F)c(OC)cc1Nc1nc(=O)c(OC)cn1Cc1ccc(F)c(F)c1 [Compound I-0815]
[1]
  IC50: < 10 nM

## CCc1cc(F)c(OC)cc1Nc1nc(=O)c(OC)cn1Cc1cc(F)cc(Cl)c1 [Compound I-0816]
[1]
  IC50: < 10 nM

## CCc1cc(F)c(OC)cc1Nc1nc(=O)c(OC)cn1Cc1cc(F)cc(F)c1 [Compound I-0817]
[2]
  IC50: 4 nM

## COc1cn(Cc2ccccc2)c(Nc2cc(Cl)cc3[nH]ccc23)nc1=O [Compound I-0818]
[1]
  IC50: 10 to 100 nM

## COc1cn(Cc2ccc(F)c(Cl)c2)c(Nc2cc(Cl)cc3[nH]ccc23)nc1=O [Compound I-0819]
[1]
  IC50: 10 to 100 nM

## COc1cn(Cc2ccc(F)c(F)c2)c(Nc2cc(Cl)cc3[nH]ccc23)nc1=O [Compound I-0820]
[1]
  IC50: 10 to 100 nM

## COc1cn(Cc2cc(F)cc(Cl)c2)c(Nc2cc(Cl)cc3[nH]ccc23)nc1=O [Compound I-0821]
[2]
  IC50: 5 nM

## COc1cn(Cc2cc(F)cc(F)c2)c(Nc2cc(Cl)cc3[nH]ccc23)nc1=O [Compound I-0822]
[1]
  IC50: 10 to 100 nM

## COc1cn(Cc2ccc(F)c(Cl)c2)c(Nc2cc3c(cc2C)OC(F)(F)C(F)(F)O3)nc1=O [Compound I-0823]
[1]
  IC50: 100 to 500 nM

## COc1cn(Cc2ccc(F)c(Cl)c2)c(Nc2ccc3c(c2C)OC(F)(F)C(F)(F)O3)nc1=O [Compound I-0824]
[1]
  IC50: 10 to 100 nM

## COc1cn(Cc2ccc(F)c(Cl)c2)c(Nc2ccc3oc(C)cc3c2C)nc1=O [Compound I-0825]
[2]
  IC50: 9 nM

## COc1nc2ccc(Nc3nc(=O)c(OC)cn3Cc3ccc(F)c(Cl)c3)c(C)c2s1 [Compound I-0826]
[1]
  IC50: 10 to 100 nM

## COc1cn(Cc2ccccc2)c(Nc2cc(-c3ccccc3)ccc2C)nc1=O [Compound I-0827]
[1]
  IC50: 10 to 100 nM

## COc1cn(Cc2ccc(F)c(Cl)c2)c(Nc2cc(-c3ccccc3)ccc2C)nc1=O [Compound I-0828]
[1]
  IC50: 10 to 100 nM

## COc1cn(Cc2cc(F)cc(F)c2)c(Nc2cc(-c3ccccc3)ccc2C)nc1=O [Compound I-0829]
[1]
  IC50: 10 to 100 nM

## COc1nc2ccc(Nc3nc(=O)c(OC)cn3Cc3cc(F)cc(F)c3)c(C)c2s1 [Compound I-0830]
[1]
  IC50: 10 to 100 nM

## COc1ncccc1-c1ccc(C)c(Nc2nc(=O)c(OC)cn2Cc2cc(F)cc(F)c2)c1 [Compound I-0831]
[1]
  IC50: < 10 nM

## COc1ncccc1-c1ccc(C)c(Nc2nc(=O)c(OC)cn2Cc2cc(F)c(F)c(F)c2)c1 [Compound I-0832]
[1]
  IC50: < 10 nM

## COc1cn(Cc2ccc(F)c(Cl)c2)c(Nc2c(C)cc3oc(C)cc3c2C)nc1=O [Compound I-0833]
[2]
  IC50: 39 nM

## Cc1cc(OC(F)F)c(C)cc1Nc1nc(=O)c(F)cn1Cc1ccc(F)c(Cl)c1 [Compound I-0834]
[1]
  IC50: < 10 nM

## Cc1cc(OC(F)F)c(C)cc1Nc1nc(=O)c(F)cn1Cc1ccc(F)c(F)c1 [Compound I-0835]
[1]
  IC50: < 10 nM

## Cc1cc(OC(F)F)c(C)cc1Nc1nc(=O)c(F)cn1Cc1cc(F)cc(F)c1 [Compound I-0836]
[2]
  IC50: 2 nM

## Cc1cc(OC(F)F)c(C)cc1Nc1nc(=O)c(Cl)cn1Cc1ccc(F)c(Cl)c1 [Compound I-0837]
[1]
  IC50: < 10 nM

## Cc1cc(OC(F)F)c(C)cc1Nc1nc(=O)c(Cl)cn1Cc1ccc(F)c(F)c1 [Compound I-0838]
[1]
  IC50: < 10 nM

## Cc1cc(OC(F)F)c(C)cc1Nc1nc(=O)c(Cl)cn1Cc1cc(F)cc(F)c1 [Compound I-0839]
[1]
  IC50: < 10 nM

## COc1ccc(Nc2nc(=O)c(F)cn2Cc2ccc(F)c(Cl)c2)c(C)c1 [Compound I-0840]
[1]
  IC50: < 10 nM

## COc1ccc(Nc2nc(=O)c(F)cn2Cc2ccc(F)c(F)c2)c(C)c1 [Compound I-0841]
[1]
  IC50: < 10 nM

## COc1ccc(Nc2nc(=O)c(Cl)cn2Cc2ccc(F)c(Cl)c2)c(C)c1 [Compound I-0843]
[1]
  IC50: 10 to 100 nM

## COc1ccc(Nc2nc(=O)c(Cl)cn2Cc2ccc(F)c(F)c2)c(C)c1 [Compound I-0844]
[1]
  IC50: < 10 nM

## COc1ccc(Nc2nc(=O)c(Cl)cn2Cc2cc(F)cc(F)c2)c(C)c1 [Compound I-0845]
[1]
  IC50: 10 to 100 nM

## COc1ccc(Cl)c(Nc2nc(=O)c(OC)cn2Cc2cc(F)c(F)c(F)c2)c1 [Compound I-0846]
[1]
  IC50: < 10 nM

## COc1ccc(Nc2nc(=O)c(OC)cn2Cc2cc(F)c(F)c(F)c2)c(Cl)c1 [Compound I-0847]
[1]
  IC50: < 10 nM

## COc1cc(Cl)c(Nc2nc(=O)c(OC)cn2Cc2cc(F)c(F)c(F)c2)cc1OC [Compound I-0848]
[1]
  IC50: < 10 nM

## Cc1ccc(-c2ncco2)cc1Nc1nc(=O)c(F)cn1Cc1ccc(F)c(Cl)c1 [Compound I-0849]
[2]
  IC50: 3 nM

## Cc1ccc(-c2ncco2)cc1Nc1nc(=O)c(F)cn1Cc1ccc(F)c(F)c1 [Compound I-0850]
[1]
  IC50: < 10 nM

## Cc1ccc(-c2ncco2)cc1Nc1nc(=O)c(F)cn1Cc1cc(F)cc(F)c1 [Compound I-0851]
[1]
  IC50: < 10 nM

Source: US10774051B2, “6-membered heterocyclic derivatives and pharmaceutical composition comprising the same” (Shionogi & Co., Ltd., priority 2015, dated 2020)
